From ChEMBL document CHEMBL5291721, “A preclinical secondary pharmacology resource illuminates target-adverse drug reaction associations of marketed drugs” (Nat Commun, 2023)

Legend:
[1] = target: Vascular endothelial growth factor receptor 2 (Homo sapiens, UniProt P35968); format: functional
[2] = target: Receptor tyrosine-protein kinase erbB-2 (Homo sapiens, UniProt P04626); format: functional
[3] = target: T1, Peroxisome proliferator-activated receptor alpha (Homo sapiens, UniProt Q07869); format: functional
T1 sequence (Q07869 whole entry): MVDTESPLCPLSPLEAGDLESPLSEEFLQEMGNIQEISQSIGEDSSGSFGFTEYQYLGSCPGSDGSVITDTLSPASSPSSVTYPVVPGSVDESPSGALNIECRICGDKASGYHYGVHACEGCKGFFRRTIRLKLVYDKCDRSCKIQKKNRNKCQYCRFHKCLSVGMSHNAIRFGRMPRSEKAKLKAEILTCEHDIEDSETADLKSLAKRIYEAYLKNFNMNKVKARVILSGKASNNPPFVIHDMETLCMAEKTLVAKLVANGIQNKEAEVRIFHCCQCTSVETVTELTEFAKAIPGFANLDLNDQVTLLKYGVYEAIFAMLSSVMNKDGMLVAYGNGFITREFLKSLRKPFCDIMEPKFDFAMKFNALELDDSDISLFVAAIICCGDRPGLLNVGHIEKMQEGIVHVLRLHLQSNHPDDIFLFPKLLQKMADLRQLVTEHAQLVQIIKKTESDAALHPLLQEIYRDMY

Androgen receptor [4] = target: T2, Androgen receptor (Rattus norvegicus, UniProt P15207); format: functional
T2 sequence (P15207 whole entry): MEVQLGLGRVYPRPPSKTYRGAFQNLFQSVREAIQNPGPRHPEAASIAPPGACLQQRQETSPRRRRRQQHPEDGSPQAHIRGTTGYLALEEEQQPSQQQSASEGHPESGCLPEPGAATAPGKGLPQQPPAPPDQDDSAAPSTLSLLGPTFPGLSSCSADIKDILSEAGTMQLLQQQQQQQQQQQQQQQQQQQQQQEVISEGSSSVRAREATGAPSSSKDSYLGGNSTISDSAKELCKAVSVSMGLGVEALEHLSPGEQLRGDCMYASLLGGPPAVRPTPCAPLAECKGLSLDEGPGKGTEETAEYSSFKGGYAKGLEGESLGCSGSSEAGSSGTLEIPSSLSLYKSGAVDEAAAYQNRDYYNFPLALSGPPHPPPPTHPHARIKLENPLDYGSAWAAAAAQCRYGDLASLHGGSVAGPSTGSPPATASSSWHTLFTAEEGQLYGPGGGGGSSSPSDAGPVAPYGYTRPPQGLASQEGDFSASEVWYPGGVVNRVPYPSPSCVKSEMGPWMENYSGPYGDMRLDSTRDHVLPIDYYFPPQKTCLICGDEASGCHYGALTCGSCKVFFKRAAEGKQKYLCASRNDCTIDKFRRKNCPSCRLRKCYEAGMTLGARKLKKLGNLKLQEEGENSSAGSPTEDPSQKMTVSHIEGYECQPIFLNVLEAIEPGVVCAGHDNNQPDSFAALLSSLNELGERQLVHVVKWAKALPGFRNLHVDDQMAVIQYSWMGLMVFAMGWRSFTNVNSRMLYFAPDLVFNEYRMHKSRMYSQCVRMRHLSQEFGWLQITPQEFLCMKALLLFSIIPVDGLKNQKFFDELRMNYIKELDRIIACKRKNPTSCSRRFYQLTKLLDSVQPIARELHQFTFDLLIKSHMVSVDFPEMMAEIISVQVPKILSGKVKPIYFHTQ

Androgen receptor [5] = target: T2, Androgen receptor
[6] = target: T3, Muscarinic acetylcholine receptor M4 (Homo sapiens, UniProt P08173)
T3 sequence (P08173 whole entry): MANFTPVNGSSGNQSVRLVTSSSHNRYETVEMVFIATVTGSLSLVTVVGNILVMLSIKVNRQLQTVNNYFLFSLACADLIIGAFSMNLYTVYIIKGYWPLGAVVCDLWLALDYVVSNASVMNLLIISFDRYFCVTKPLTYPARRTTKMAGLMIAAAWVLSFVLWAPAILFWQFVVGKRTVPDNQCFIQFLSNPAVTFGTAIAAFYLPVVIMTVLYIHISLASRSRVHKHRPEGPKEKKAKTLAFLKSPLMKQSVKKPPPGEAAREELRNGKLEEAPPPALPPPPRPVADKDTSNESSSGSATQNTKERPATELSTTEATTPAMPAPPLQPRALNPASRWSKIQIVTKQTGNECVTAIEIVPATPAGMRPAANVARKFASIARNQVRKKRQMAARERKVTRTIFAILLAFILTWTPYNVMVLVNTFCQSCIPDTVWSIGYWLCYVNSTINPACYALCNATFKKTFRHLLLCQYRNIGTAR

Substance-K receptor = target: T4, Substance-K receptor (Homo sapiens, UniProt P21452)
T4 sequence (P21452 whole entry): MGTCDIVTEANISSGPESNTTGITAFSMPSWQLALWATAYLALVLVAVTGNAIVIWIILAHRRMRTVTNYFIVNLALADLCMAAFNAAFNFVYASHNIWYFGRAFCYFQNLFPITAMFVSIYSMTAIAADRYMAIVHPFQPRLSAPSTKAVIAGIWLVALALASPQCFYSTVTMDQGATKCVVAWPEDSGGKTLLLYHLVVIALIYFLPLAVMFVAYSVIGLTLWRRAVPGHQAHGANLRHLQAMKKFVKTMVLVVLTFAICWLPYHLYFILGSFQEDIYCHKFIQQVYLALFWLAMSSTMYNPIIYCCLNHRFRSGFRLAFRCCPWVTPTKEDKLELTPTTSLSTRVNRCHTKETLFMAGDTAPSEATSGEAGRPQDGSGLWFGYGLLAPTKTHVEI

[7] = target: Hydroxycarboxylic acid receptor 2 (Homo sapiens, UniProt Q8TDS4)
[8] = target: 5-hydroxytryptamine receptor 5A (Homo sapiens, UniProt P47898)
Note: assay procedure not described here.

Chain of Receptor tyrosine-protein kinase erbB-2 (P04626 whole entry): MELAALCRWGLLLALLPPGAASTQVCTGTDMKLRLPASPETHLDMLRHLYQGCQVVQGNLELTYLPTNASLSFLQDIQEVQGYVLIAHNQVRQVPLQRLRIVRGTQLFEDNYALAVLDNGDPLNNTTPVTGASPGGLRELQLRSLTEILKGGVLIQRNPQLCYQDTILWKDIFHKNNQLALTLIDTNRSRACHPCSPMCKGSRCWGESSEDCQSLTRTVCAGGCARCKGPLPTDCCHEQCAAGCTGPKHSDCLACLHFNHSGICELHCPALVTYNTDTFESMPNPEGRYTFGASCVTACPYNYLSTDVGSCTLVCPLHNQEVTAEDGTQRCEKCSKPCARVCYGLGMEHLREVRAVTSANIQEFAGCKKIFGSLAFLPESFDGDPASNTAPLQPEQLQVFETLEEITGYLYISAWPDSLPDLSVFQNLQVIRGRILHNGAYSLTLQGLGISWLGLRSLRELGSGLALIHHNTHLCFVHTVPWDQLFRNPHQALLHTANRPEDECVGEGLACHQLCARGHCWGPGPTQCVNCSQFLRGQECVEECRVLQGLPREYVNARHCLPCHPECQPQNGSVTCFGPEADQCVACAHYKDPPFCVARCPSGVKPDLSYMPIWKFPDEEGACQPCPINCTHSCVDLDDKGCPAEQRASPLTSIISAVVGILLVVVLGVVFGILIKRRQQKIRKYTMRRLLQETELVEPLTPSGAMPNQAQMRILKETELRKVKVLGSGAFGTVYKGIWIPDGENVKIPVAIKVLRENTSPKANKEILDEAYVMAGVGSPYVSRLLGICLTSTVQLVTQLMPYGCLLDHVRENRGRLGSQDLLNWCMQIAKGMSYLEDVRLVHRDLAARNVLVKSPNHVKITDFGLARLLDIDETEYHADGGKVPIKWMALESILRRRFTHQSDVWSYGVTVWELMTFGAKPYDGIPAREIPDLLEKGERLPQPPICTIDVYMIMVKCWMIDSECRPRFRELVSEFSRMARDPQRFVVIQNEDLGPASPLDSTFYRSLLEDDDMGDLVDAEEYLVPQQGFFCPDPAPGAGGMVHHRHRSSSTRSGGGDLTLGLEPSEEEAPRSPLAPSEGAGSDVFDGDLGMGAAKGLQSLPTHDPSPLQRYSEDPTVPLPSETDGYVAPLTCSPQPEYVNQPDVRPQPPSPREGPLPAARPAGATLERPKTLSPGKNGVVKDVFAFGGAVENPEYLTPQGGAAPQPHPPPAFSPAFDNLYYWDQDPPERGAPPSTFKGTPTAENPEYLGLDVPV
Chain of Vascular endothelial growth factor receptor 2 (P35968 whole entry): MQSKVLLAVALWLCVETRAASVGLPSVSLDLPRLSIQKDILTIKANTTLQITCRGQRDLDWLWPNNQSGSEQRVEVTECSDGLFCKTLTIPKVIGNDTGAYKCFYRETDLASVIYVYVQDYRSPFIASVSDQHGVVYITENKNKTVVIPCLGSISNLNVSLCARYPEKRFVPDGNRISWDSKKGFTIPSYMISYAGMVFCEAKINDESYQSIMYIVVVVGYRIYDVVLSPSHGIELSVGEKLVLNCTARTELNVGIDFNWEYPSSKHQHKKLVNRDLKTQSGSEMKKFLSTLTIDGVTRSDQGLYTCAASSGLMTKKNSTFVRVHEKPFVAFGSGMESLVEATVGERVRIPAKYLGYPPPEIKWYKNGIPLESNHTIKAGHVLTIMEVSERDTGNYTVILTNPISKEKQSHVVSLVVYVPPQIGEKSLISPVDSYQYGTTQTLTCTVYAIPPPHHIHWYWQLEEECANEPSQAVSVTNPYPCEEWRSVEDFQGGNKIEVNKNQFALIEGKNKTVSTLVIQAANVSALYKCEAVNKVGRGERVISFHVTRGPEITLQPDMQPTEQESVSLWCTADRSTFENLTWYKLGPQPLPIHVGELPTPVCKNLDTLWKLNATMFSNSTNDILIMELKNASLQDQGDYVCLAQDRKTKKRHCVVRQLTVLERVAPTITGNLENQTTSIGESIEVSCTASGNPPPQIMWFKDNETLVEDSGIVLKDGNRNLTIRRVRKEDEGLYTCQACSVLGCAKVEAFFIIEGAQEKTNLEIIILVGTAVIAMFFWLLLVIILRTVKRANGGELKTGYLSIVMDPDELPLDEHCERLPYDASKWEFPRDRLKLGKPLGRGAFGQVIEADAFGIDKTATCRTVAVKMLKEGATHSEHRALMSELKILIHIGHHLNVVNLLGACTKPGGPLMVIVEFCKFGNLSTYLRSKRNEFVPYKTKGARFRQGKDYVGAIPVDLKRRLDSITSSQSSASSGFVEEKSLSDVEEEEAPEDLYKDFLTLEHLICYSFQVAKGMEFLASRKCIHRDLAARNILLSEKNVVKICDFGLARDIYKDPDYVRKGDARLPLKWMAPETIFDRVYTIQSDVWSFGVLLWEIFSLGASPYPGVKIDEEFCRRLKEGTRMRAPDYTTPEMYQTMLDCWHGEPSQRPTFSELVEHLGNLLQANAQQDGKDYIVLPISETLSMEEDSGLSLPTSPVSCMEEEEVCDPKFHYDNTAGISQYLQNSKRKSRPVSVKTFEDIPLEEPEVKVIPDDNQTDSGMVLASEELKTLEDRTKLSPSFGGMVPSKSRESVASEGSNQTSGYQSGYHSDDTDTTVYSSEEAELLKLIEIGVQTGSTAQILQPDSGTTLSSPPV
Chain of 5-hydroxytryptamine receptor 5A (P47898 whole entry): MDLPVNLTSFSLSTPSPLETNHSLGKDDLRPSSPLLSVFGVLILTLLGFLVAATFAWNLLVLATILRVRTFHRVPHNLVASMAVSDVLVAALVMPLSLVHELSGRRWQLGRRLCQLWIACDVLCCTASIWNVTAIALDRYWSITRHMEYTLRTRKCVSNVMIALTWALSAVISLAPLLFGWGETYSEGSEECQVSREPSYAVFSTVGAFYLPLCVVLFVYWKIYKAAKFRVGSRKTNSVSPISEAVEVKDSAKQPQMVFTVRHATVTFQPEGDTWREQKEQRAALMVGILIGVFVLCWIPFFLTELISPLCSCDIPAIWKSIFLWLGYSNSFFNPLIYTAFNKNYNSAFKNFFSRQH
Chain of Hydroxycarboxylic acid receptor 2 (Q8TDS4 whole entry): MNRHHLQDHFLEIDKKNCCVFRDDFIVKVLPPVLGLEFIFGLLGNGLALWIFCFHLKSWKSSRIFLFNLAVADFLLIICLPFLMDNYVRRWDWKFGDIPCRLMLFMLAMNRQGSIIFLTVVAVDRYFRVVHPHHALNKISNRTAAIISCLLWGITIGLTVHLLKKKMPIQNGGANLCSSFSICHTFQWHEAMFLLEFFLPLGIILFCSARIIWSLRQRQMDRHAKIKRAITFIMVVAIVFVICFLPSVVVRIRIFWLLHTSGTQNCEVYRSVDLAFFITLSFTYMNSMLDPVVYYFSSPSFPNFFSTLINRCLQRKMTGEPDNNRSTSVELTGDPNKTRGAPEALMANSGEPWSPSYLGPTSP

## C[C@H](CCC(=O)O)[C@H]1CC[C@H]2[C@@H]3[C@@H](O)C[C@@H]4C[C@H](O)CC[C@]4(C)[C@H]3CC[C@]12C [URSODIOL]
[1]
  AC50: > 10 µM
[2]
  AC50: > 30 µM

## CC(C(=O)O)c1ccc2c(c1)[nH]c1ccc(Cl)cc12 (centres undefined) [CARPROFEN]
[3]
  AC50: > 30 µM

## COc1ccccc1OCCNCC(O)COc1cccc2[nH]c3ccccc3c12 (centres undefined) [CARVEDILOL]
Androgen receptor [4]
  AC50: > 30 µM
Androgen receptor [5]
  AC50: > 30 µM

## CCCN(CCC)C(=O)Cc1c(-c2ccc(Cl)cc2)nc2ccc(Cl)cn12 [ALPIDEM]
[6]
  AC50: > 10 µM
Substance-K receptor
  AC50: > 10 µM

## C[C@@H](NCCCc1cccc(C(F)(F)F)c1)c1cccc2ccccc12
Androgen receptor [4]
  AC50: > 30 µM

## CC(C)Cc1ccc(C(C)C(=O)O)cc1 (centres undefined) [IBUPROFEN]
[3]
  AC50: > 30 µM

## C=CC[C@@H]1/C=C(\C)C[C@H](C)C[C@H](OC)[C@H]2O[C@@](O)(C(=O)C(=O)N3CCCC[C@H]3C(=O)O[C@H](/C(C)=C/[C@@H]3CC[C@@H](O)[C@H](OC)C3)[C@H](C)[C@@H](O)CC1=O)[C@H](C)C[C@@H]2OC [TACROLIMUS ANHYDROUS]
[1]
  AC50: > 30 µM
Androgen receptor [5]
  AC50: > 30 µM
[2]
  AC50: > 30 µM

## CC(=O)O[C@]1(C(C)=O)CC[C@H]2[C@@H]3C=C(C)C4=CC(=O)CC[C@@H]4[C@H]3CC[C@@]21C [NOMEGESTROL ACETATE]
Androgen receptor [4]
  AC50: > 30 µM

## Cc1onc(-c2ccccc2)c1-c1ccc(S(N)(=O)=O)cc1 [VALDECOXIB]
[7]
  AC50: > 10 µM
[6]
  AC50: > 10 µM
Substance-K receptor
  AC50: > 10 µM
[8]
  AC50: > 10 µM

## C[C@H]1c2cccc(O)c2C(=O)C2=C(O)[C@]3(O)C(=O)C(C(N)=O)=C(O)[C@@H](N(C)C)[C@@H]3[C@@H](O)[C@@H]21 [DOXYCYCLINE]
[7]
  AC50: > 10 µM

## CCN(CC)CCNC(=O)c1c(C)[nH]c(/C=C2\C(=O)Nc3ccc(F)cc32)c1C [SUNITINIB]
[3]
  AC50: > 30 µM
[6]
  AC50: > 10 µM
[8]
  AC50: 10 µM

## COc1ccccc1Oc1c(NS(=O)(=O)c2ccc(C(C)(C)C)cc2)nc(-c2ncccn2)nc1OCCO [BOSENTAN]
[3]
  AC50: > 30 µM

## Nc1ccc(S(=O)(=O)Nc2nccs2)cc1 [SULFATHIAZOLE]
[7]
  AC50: > 10 µM

## COc1cc2nccc(Oc3ccc(NC(=O)C4(C(=O)Nc5ccc(F)cc5)CC4)cc3)c2cc1OC [CABOZANTINIB]
[2]
  AC50: 6.2 µM

## COc1ccc(CC2c3cc(OC)c(OC)cc3CC[N+]2(C)CCC(=O)OCCCCCOC(=O)CC[N+]2(C)CCc3cc(OC)c(OC)cc3C2Cc2ccc(OC)c(OC)c2)cc1OC (centres undefined)
Androgen receptor [4]
  AC50: > 30 µM

## CCCC(CCC)C(=O)O [VALPROIC ACID]
[6]
  AC50: > 10 µM
Substance-K receptor
  AC50: > 10 µM

## CCN1CCN(Cc2ccc(Nc3ncc(F)c(-c4cc(F)c5nc(C)n(C(C)C)c5c4)n3)nc2)CC1 [ABEMACICLIB]
[1]
  AC50: 14 µM
[2]
  AC50: > 30 µM

## N[C@@H](CC(=O)N1CCn2c(nnc2C(F)(F)F)C1)Cc1cc(F)c(F)cc1F [SITAGLIPTIN]
[6]
  AC50: > 10 µM
Substance-K receptor
  AC50: > 10 µM
[8]
  AC50: > 10 µM

## CO[C@H]1/C=C/O[C@@]2(C)Oc3c(C)c(O)c4c(O)c(c(/C=N/N5CCN(C)CC5)c(O)c4c3C2=O)NC(=O)/C(C)=C\C=C\[C@H](C)[C@H](O)[C@@H](C)[C@@H](O)[C@@H](C)[C@H](OC(C)=O)[C@@H]1C [RIFAMPIN]
[3]
  AC50: > 30 µM

## CN(C)CCc1c[nH]c2ccc(Cn3cncn3)cc12 [RIZATRIPTAN]
Androgen receptor [5]
  AC50: > 30 µM
